In patent US9834558B2, “Substituted bridged urea analogs as sirtuin modulators” (GLAXOSMITHKLINE LLC, priority 2013, dated 2017):
Where two headings read alike, the source gives them in different places.

Molecular target: T1, SIRT1 (Homo sapiens, UniProt Q96EB6)
T1 sequence (Q96EB6 1-747): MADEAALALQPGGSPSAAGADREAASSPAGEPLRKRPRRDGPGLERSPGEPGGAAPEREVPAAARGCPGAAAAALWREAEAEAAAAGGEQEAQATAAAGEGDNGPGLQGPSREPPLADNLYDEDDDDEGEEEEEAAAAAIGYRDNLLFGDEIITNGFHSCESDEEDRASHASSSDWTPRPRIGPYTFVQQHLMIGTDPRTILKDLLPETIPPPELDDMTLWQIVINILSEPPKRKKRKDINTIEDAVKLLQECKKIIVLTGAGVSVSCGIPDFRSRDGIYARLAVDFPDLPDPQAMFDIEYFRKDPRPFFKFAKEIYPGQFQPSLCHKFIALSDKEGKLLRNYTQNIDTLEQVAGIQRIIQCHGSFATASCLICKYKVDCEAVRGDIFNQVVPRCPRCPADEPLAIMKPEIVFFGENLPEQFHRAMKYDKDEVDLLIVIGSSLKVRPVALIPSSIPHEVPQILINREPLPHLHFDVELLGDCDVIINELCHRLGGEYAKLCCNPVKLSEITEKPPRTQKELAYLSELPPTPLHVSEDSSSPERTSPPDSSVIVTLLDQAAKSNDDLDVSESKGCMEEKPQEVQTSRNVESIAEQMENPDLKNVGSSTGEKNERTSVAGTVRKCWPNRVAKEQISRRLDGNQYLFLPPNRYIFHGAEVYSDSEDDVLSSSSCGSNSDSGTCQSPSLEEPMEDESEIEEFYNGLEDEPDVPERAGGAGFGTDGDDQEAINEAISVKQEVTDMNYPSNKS
Test: Trp mass spectrometry assay of SIRT1 activation
Format: biochemical
Conditions: for TRP Activity (EC1.5): EC1.5 = concentration that results in 150% activation of SIRT1
Summary of the method: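 Activation read-out: mass-spec measurement of O-acetyl-ADP-ribose or deacetylated Trp peptide versus compound-free controls, giving EC1.5 and Percent Maximum Activation. Reactions ran 25 min at 25 °C, pH 7.5, with 120 μM βNAD+, 0.5 μM acetylated p53-derived peptide and 10 nM His-tagged SIRT1.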

[1] = Trp mass spectrometry assay, EC1.5 = concentration of test compound that results in 150% activation of SIRT1
[2] = Trp peptide assay, maximum activity relative to control (100%), read-out: TRP MAX RESP (percent maximum fold activation)
[3] = concentration giving 150% activation of SIRT1, Trp peptide substrate
[4] = Trp mass spectrometry assay, percent maximum fold activation of SIRT1, read-out: Tryp % Fold Act
[5] = Trp mass spectrometry assay, concentration of test compound giving 150% activation of SIRT1

| SMILES | TRP Activity (EC1.5) (Trp peptide assay) | Emax [2] | further results |
| --- | --- | --- | --- |
| Cc1nc(NC(=O)N2c3nc(-c4cncc(C(F)(F)F)c4)ccc3N3CCC[C@H]2C3)sc1C [Example 427] |  |  | Tryp AVG EC1.5 (μM) [1]: A (A (EC1.5<1 μM)) |
| Cc1ccc(-c2ccc3c(n2)N(C(=O)Nc2cnccn2)[C@H]2CCN3C2)c(C)n1 [(9S)-5-(2,6-dimethylpyridin-3-yl)-N-(pyrazin-2-yl)-1,6,8-triazatricyclo[7.2.1.0 {2,7}]dodeca-2(7),3,5-triene-8-carboxamide] | B (B (EC1.5 1-25 μM)) | > 150% |  |
| O=C(Nc1cccnc1)N1c2nc(N3CCOC[C@@H]3CO)ccc2N2CC[C@H]1C2 [(9S)-5-[(3S)-3-(hydroxymethyl)morpholin-4-yl]-N-(pyridin-3-yl)-1,6,8-triazatricyclo[7.2.1.0 {2,7}]dodeca-2(7),3,5-triene-8-carboxamide] | C (C (EC1.5>25 μM)) | < 150% |  |
| N#Cc1cc(-c2ccc3c(n2)N(C(=O)Nc2cnccn2)[C@H]2CCN3C2)ccc1F [Example 419] |  |  | Tryp AVG EC1.5 (μM) [1]: A (A (EC1.5<1 μM)) |
| O=C(Nc1cccnc1)N1c2nc(-c3cccc(N4CCOCC4)c3)ccc2N2CCC[C@H]1C2 [Example 538] |  |  | Tryp AVG EC1.5 (μM) [1]: A (A (EC1.5<1 μM)) |
| O=C(NC(CO)C(F)(F)F)c1ccc2c(n1)N(C(=O)Nc1ccccn1)[C@H]1CCN2C1 (stereo partly drawn) [(9S)-8-N-(pyridin-2-yl)-5-N-(1,1,1-trifluoro-3-hydroxypropan-2-yl)-1,6,8-triazatricyclo[7.2.1.0^{2,7}]dodeca-2(7),3,5-triene-5,8-dicarboxamide] | A (A (EC1.5<1 μM)) | > 150% |  |
| O=C(Nc1ccnc(O[C@@H]2CCOC2)n1)N1c2nc(-c3cccc(C(F)(F)F)c3)ccc2N2CC[C@H]1C2 [(9S)-N-{2-[(3R)-oxolan-3-yloxy]pyrimidin-4-yl}-5-[3-(trifluoromethyl)phenyl]-1,6,8-triazatricyclo[7.2.1.0 {2,7}]dodeca-2(7),3,5-triene-8-carboxamide] | A (A (EC1.5<1 μM)) | > 150% |  |
| O=C(Nc1cnccn1)N1c2nc(N3CCO[C@H](C(F)(F)F)C3)ccc2N2CC[C@H]1C2 [drawing 1227, (9S)-N-(pyrazin-2-yl)-5-[(2S)-2-(trifluoromethyl)morpholin-4-yl]-1,6,8-triazatricyclo[7.2.1.0 {2,7}]dodeca-2(7),3,5-triene-8-carboxamide] | A (A (EC1.5<1 μM)) |  | TRP MAX RESP (percent maximum fold activation) (Trp peptide assay, maximum activity relative to control (100%)): A (A (Fold activation ≧150%)) |
| O=C(Nc1cncc(F)c1)N1c2nc(-c3ccnc(C(F)(F)F)c3)ccc2N2CCC[C@H]1C2 [(9S)-N-(5-fluoropyridin-3-yl)-5-[2-(trifluoromethyl)pyridin-4-yl]-1,6,8-triazatricyclo[7.3.1.0 {2,7}]trideca-2(7),3,5-triene-8-carboxamide] | A (A (EC1.5<1 μM)) | > 150% |  |
| O=C(NC1CCCOC1)c1ccc2c(n1)N(C(=O)Nc1ccccn1)[C@H]1CCN2C1 (stereo partly drawn) [(9S)-5-N-(oxan-3-yl)-8-N-(pyridin-2-yl)-1,6,8-triazatricyclo[7.2.1.0 {2,7}]dodeca-2(7),3,5-triene-5,8-dicarboxamide] | B (B (EC1.5 1-25 μM)) | > 150% |  |
| CC(=O)c1cccc(NC(=O)N2c3nc(-c4cccc(C(F)(F)F)c4)ccc3N3CC[C@H]2C3)c1 [Example 671] |  |  | Tryp AVG EC1.5 (μM) [3]: A (A (EC1.5<1 μM)) |
| [N-]=[N+]=NCC(=O)NCc1ccc(NC(=O)N2c3nc(-c4cccc(C(F)(F)F)c4)ccc3N3CC[C@H]2C3)cc1 [Example 799] |  |  | Tryp AVG EC1.5 (μM) [3]: A (A (EC1.5<1 μM)) |
| COc1cc(NC(=O)N2c3nc(-c4ccnc(N5CC[C@H](F)C5)c4)ccc3N3CC[C@H]2C3)ncn1 [Example 437] |  |  | Tryp AVG EC1.5 (μM) [1]: B (B (EC1.5 1-25 μM)) |
| Cc1cc(-c2ccc3c(n2)N(C(=O)Nc2ccc4nn(C)cc4c2)[C@H]2CCN3C2)ccn1 [Example 483] |  |  | Tryp AVG EC1.5 (μM) [1]: A (A (EC1.5<1 μM)); Emax [4]: > 150% |
| O=C(Nc1cncc(F)c1)N1c2nc(-c3cccc(C(F)(F)F)c3)ccc2S(=O)(=O)N2CC[C@H]1C2 [Example 460] |  |  | Tryp AVG EC1.5 (μM) [1]: B (B (EC1.5 1-25 μM)) |
| Cc1nc(NC(=O)N2c3nc(-c4cccc(N(C)C)c4)ccc3N3CCC[C@H]2C3)sc1C [Example 383] |  |  | Tryp AVG EC1.5 (μM) [5]: A (A (EC1.5<1 μM)) |
| Cn1cc(-c2ccc3c(n2)N(C(=O)Nc2cccnc2)[C@H]2CCN3C2)ccc1=O [(9S)-5-(1-methyl-6-oxo-1,6-dihydropyridin-3-yl)-N-(pyridin-3-yl)-1,6,8-triazatricyclo[7.2.1.0^2,7]dodeca-2(7),3,5-triene-8-carboxamide] | B (B (EC1.5 1-25 μM)) | > 150% |  |
| CCC(=O)N1CCC(c2cccc(NC(=O)N3c4nc(-c5cccc(C(F)(F)F)c5)ccc4N4CC[C@H]3C4)c2)C1 (stereo partly shown) [Example 636] |  |  | Tryp AVG EC1.5 (μM) [3]: A (A (EC1.5<1 μM)) |
| O=C(Nc1cncnc1)N1c2nc(-c3cncc(C(F)(F)F)c3)ccc2N2CCC[C@H]1C2 [(9S)-N-(pyrimidin-5-yl)-5-[5-(trifluoromethyl)pyridin-3-yl]-1,6,8-triazatricyclo[7.3.1.0 {2,7}]trideca-2(7),3,5-triene-8-carboxamide] | A (A (EC1.5<1 μM)) | > 150% |  |
| Cc1cc(-c2ccc3c(n2)N(C(=O)Nc2nccc(C)n2)[C@H]2CCN3C2)ccn1 [(9S)-5-(2-methylpyridin-4-yl)-N-(4-methylpyrimidin-2-yl)-1,6,8-triazatricyclo[7.2.1.0^{2,7}]dodeca-2,4,6-triene-8-carboxamide] | B (B (EC1.5 1-25 μM)) | > 150% |  |
| O=C(Nc1ccncn1)N1c2nc(-c3ccnc(C(F)(F)F)c3)ccc2N2CCC[C@H]1C2 [(9S)-N-(pyrimidin-4-yl)-5-[2-(trifluoromethyl)pyridin-4-yl]-1,6,8-triazatricyclo[7.3.1.0 {2,7}]trideca-2(7),3,5-triene-8-carboxamide] | A (A (EC1.5<1 μM)) | > 150% |  |
| O=C(Nc1nnc(-c2cccnc2)s1)N1c2nc(-c3cccc(C(F)(F)F)c3)ccc2N2CC[C@H]1C2 [Example 651] |  |  | Tryp AVG EC1.5 (μM) [3]: A (A (EC1.5<1 μM)) |
| O=C(Nc1ccccn1)N1c2nc(-c3ccnc(N4CCC(F)(F)C4)c3)ccc2N2CC[C@H]1C2 [Example 388] |  |  | Tryp AVG EC1.5 (μM) [5]: A (A (EC1.5<1 μM)) |
| O=C(Nc1ccncn1)N1c2nc(-c3cncc(F)c3)ccc2N2CCC1CC2 [Example 573] |  |  | Tryp AVG EC1.5 (μM) [1]: C (C (EC1.5>25 μM)) |
| O=C(Nc1ccccn1)N1c2nc(-c3cccc(C(F)(F)F)c3)ccc2N2CC[C@H]1C2 [816 (7)] |  |  | Tryp AVG EC1.5 (μM) [3]: A (A (EC1.5<1 μM)) |
| O=C(CCCC[C@@H]1SC[C@@H]2NC(=O)N[C@@H]21)NCCCCCC(=O)NCc1cn(-c2cccc(NC(=O)N3c4nc(-c5cccc(C(F)(F)F)c5)ccc4N4CC[C@H]3C4)c2)nn1 [Example 607] |  |  | Tryp AVG EC1.5 (μM) [1]: A (A (EC1.5<1 μM)); Emax [4]: > 150% |
| N=C(N)NCc1ncc(-c2cccc(NC(=O)N3c4nc(-c5cccc(C(F)(F)F)c5)ccc4N4CC[C@H]3C4)c2)o1 [Example 776] |  |  | Tryp AVG EC1.5 (μM) [3]: A (A (EC1.5<1 μM)) |
| Cc1cc(-c2ccc3c(n2)N(C(=O)Nc2ccc4nn(C)cc4c2)[C@H]2CCCN3C2)ccn1 [(9S)-N-(2-methyl-2H-indazol-5-yl)-5-(2-methylpyridin-4-yl)-1,6,8-triazatricyclo[7.3.1.0 {2,7}]trideca-2,4,6-triene-8-carboxamide] | A (A (EC1.5<1 μM)) | > 150% |  |
| O=C(Nc1nnc(C(F)(F)F)s1)N1c2nc(-c3cccc(C(F)(F)F)c3)ccc2N2CC[C@H]1C2 [Example 650] |  |  | Tryp AVG EC1.5 (μM) [3]: C (C (EC1.5>25 μM)) |
